Assay results taken from PubChem BioAssay (NCI).
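Cultured in 96-well plates, cells were exposed to test compound for 48 hours across five concentrations. At the GI50, growth is halved. TGI: total growth inhibition.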

Key:
Test in all cases: NCI-60 cell line screen, 48 h
SR leukemia = test system: SR leukemia
RXF 393 renal = test system: RXF 393 renal
ACHN renal = test system: ACHN renal
CCRF-CEM leukemia = test system: CCRF-CEM leukemia
HCT-15 colon = test system: HCT-15 colon
786-0 renal = test system: 786-0 renal
U251 CNS = test system: U251 CNS
NCI/ADR-RES ovarian = test system: NCI/ADR-RES ovarian
IGROV1 ovarian = test system: IGROV1 ovarian
NCI-H522 lung = test system: NCI-H522 lung
TK-10 renal = test system: TK-10 renal
SF-295 CNS = test system: SF-295 CNS
COLO 205 colon = test system: COLO 205 colon
HOP-92 NSCLC = test system: HOP-92 NSCLC
MCF7 breast = test system: MCF7 breast
SF-268 CNS = test system: SF-268 CNS
SK-MEL-28 melanoma = test system: SK-MEL-28 melanoma
T-47D breast = test system: T-47D breast
HCC-2998 colon = test system: HCC-2998 colon
A498 renal = test system: A498 renal
SNB-19 CNS = test system: SNB-19 CNS
HS 578T breast = test system: HS 578T breast
KM12 colon = test system: KM12 colon
SK-MEL-5 melanoma = test system: SK-MEL-5 melanoma
MALME-3M melanoma = test system: MALME-3M melanoma
HT29 colon = test system: HT29 colon
NCI-H460 lung = test system: NCI-H460 lung
SW-620 colon = test system: SW-620 colon
SN12C renal = test system: SN12C renal
A549 NSCLC = test system: A549 NSCLC
BT-549 breast = test system: BT-549 breast
SF-539 CNS = test system: SF-539 CNS
MDA-MB-231 breast = test system: MDA-MB-231 breast
DU-145 prostate = test system: DU-145 prostate
EKVX NSCLC = test system: EKVX NSCLC
HL-60(TB) leukemia = test system: HL-60(TB) leukemia
M14 melanoma = test system: M14 melanoma
SK-MEL-2 melanoma = test system: SK-MEL-2 melanoma
SK-OV-3 ovarian = test system: SK-OV-3 ovarian
OVCAR-5 ovarian = test system: OVCAR-5 ovarian
HOP-62 NSCLC = test system: HOP-62 NSCLC
MDA-MB-435 = test system: MDA-MB-435
UACC-257 melanoma = test system: UACC-257 melanoma
OVCAR-4 ovarian = test system: OVCAR-4 ovarian
NCI-H226 lung = test system: NCI-H226 lung
K-562 leukemia = test system: K-562 leukemia
MOLT-4 leukemia = test system: MOLT-4 leukemia
SNB-75 CNS = test system: SNB-75 CNS
PC-3 prostate = test system: PC-3 prostate
CAKI-1 renal = test system: CAKI-1 renal
NCI-H23 lung = test system: NCI-H23 lung
UO-31 renal = test system: UO-31 renal
HCT-116 colon = test system: HCT-116 colon
UACC-62 melanoma = test system: UACC-62 melanoma
OVCAR-8 ovarian = test system: OVCAR-8 ovarian
RPMI-8226 leukemia = test system: RPMI-8226 leukemia
OVCAR-3 ovarian = test system: OVCAR-3 ovarian
LOX IMVI melanoma = test system: LOX IMVI melanoma

## NS(=O)(=O)c1ccc(Nc2nc(N/N=C/c3ccc(C(F)(F)F)cc3)nc(Nc3ccccc3)n2)cc1
SR leukemia
  GI50: 3.07 µM
  TGI: 15.3 µM
RXF 393 renal
  GI50: 1.82 µM
  TGI: 4.65 µM
ACHN renal
  GI50: 2.68 µM
  TGI: 7.59 µM
CCRF-CEM leukemia
  GI50: 3 µM
  TGI: > 100 µM
HCT-15 colon
  GI50: 2.32 µM
  TGI: 6.48 µM
786-0 renal
  GI50: 2.22 µM
  TGI: 5.2 µM
U251 CNS
  GI50: 2.68 µM
  TGI: 11.3 µM
NCI/ADR-RES ovarian
  GI50: 12.3 µM
  TGI: 75.7 µM
IGROV1 ovarian
  GI50: 2.64 µM
  TGI: 7.42 µM
NCI-H522 lung
  GI50: 2.66 µM
  TGI: 7.77 µM
TK-10 renal
  GI50: 3.45 µM
  TGI: 10.5 µM
SF-295 CNS
  GI50: 1.92 µM
  TGI: 4.07 µM
COLO 205 colon
  GI50: 1.86 µM
  TGI: 4.37 µM
HOP-92 NSCLC
  GI50: 2.38 µM
  TGI: 6.31 µM
MCF7 breast
  GI50: 2.18 µM
  TGI: 7.37 µM
SF-268 CNS
  GI50: 3.51 µM
  TGI: 14 µM
SK-MEL-28 melanoma
  GI50: 2.44 µM
  TGI: 7.37 µM
T-47D breast
  GI50: 2.48 µM
  TGI: 9.78 µM
HCC-2998 colon
  GI50: 2.97 µM
  TGI: 9.04 µM
A498 renal
  GI50: 2.61 µM
  TGI: 9.26 µM
SNB-19 CNS
  GI50: 3.46 µM
  TGI: 11.4 µM
HS 578T breast
  GI50: 3.07 µM
  TGI: > 100 µM
KM12 colon
  GI50: 2.38 µM
  TGI: 5.61 µM
SK-MEL-5 melanoma
  GI50: 1.74 µM
  TGI: 3.18 µM
MALME-3M melanoma
  GI50: 1.87 µM
  TGI: 3.9 µM
HT29 colon
  GI50: 2.44 µM
  TGI: 5.78 µM
NCI-H460 lung
  GI50: 3.02 µM
  TGI: 8.89 µM
SW-620 colon
  GI50: 3.3 µM
  TGI: 11.1 µM
SN12C renal
  GI50: 3 µM
  TGI: 10.2 µM
A549 NSCLC
  GI50: 3.11 µM
  TGI: 11.6 µM
BT-549 breast
  GI50: 2.79 µM
  TGI: 9.48 µM
SF-539 CNS
  GI50: 1.86 µM
  TGI: 4.23 µM
MDA-MB-231 breast
  GI50: 2.31 µM
  TGI: 5.52 µM
DU-145 prostate
  GI50: 3.31 µM
  TGI: 11 µM
EKVX NSCLC
  GI50: 2.62 µM
  TGI: 8.51 µM
HL-60(TB) leukemia
  GI50: 3.59 µM
  TGI: > 100 µM
M14 melanoma
  GI50: 2.51 µM
  TGI: 6.45 µM
SK-MEL-2 melanoma
  GI50: 2.17 µM
  TGI: 5 µM
SK-OV-3 ovarian
  GI50: 3.66 µM
  TGI: 33.8 µM
OVCAR-5 ovarian
  GI50: 2.96 µM
  TGI: 11 µM
HOP-62 NSCLC
  GI50: 2.15 µM
  TGI: 5.78 µM
MDA-MB-435
  GI50: 2.07 µM
  TGI: 4.44 µM
UACC-257 melanoma
  GI50: 2.42 µM
  TGI: 7.26 µM
OVCAR-4 ovarian
  GI50: 3.69 µM
  TGI: 64.8 µM
NCI-H226 lung
  GI50: 2.45 µM
  TGI: 6.22 µM
K-562 leukemia
  GI50: 3.51 µM
  TGI: 12.8 µM
MOLT-4 leukemia
  GI50: 3.06 µM
  TGI: 14.4 µM
SNB-75 CNS
  GI50: 2.05 µM
  TGI: 6.24 µM
PC-3 prostate
  GI50: 2.8 µM
  TGI: 9.72 µM
CAKI-1 renal
  GI50: 3.05 µM
  TGI: 9.93 µM
NCI-H23 lung
  GI50: 1.95 µM
  TGI: 4.25 µM
UO-31 renal
  GI50: 1.88 µM
  TGI: 4.64 µM
HCT-116 colon
  GI50: 3.1 µM
  TGI: 10.3 µM
UACC-62 melanoma
  GI50: 2.35 µM
  TGI: 5.33 µM
OVCAR-8 ovarian
  GI50: 2.82 µM
  TGI: 10.4 µM

## COC(=O)N1CCN(CCNCc2ccc(NC(=O)c3ccc(C)c(C#Cc4cnc5cccnn45)c3)cc2C(F)(F)F)CC1
SR leukemia
  GI50: 0.796 µM
  TGI: 22.1 µM
RXF 393 renal
  GI50: 1.73 µM
  TGI: 3.21 µM
ACHN renal
  GI50: 2.32 µM
  TGI: 6.85 µM
CCRF-CEM leukemia
  GI50: 1.46 µM
  TGI: 8.22 µM
HCT-15 colon
  GI50: 1.1 µM
  TGI: 3.07 µM
786-0 renal
  GI50: 1.45 µM
  TGI: 3.54 µM
U251 CNS
  GI50: 1.53 µM
  TGI: 3.32 µM
NCI/ADR-RES ovarian
  GI50: 2.02 µM
  TGI: 6.24 µM
IGROV1 ovarian
  GI50: 1.41 µM
  TGI: 3.43 µM
NCI-H522 lung
  GI50: 1.51 µM
  TGI: 3.23 µM
TK-10 renal
  GI50: 2.21 µM
  TGI: 5.07 µM
SF-295 CNS
  GI50: 1.54 µM
  TGI: 3.03 µM
COLO 205 colon
  GI50: 1.19 µM
  TGI: 2.79 µM
HOP-92 NSCLC
  GI50: 0.867 µM
  TGI: 2.83 µM
MCF7 breast
  GI50: 1.47 µM
  TGI: 3.06 µM
RPMI-8226 leukemia
  GI50: 1.37 µM
  TGI: 4.32 µM
SF-268 CNS
  GI50: 2.08 µM
  TGI: 4.78 µM
SK-MEL-28 melanoma
  GI50: 1.48 µM
  TGI: 2.89 µM
HCC-2998 colon
  GI50: 1.48 µM
  TGI: 2.86 µM
A498 renal
  GI50: 2.8 µM
  TGI: 7.35 µM
SNB-19 CNS
  GI50: 2.53 µM
  TGI: 5.89 µM
HS 578T breast
  GI50: 1.72 µM
  TGI: 5.04 µM
KM12 colon
  GI50: 0.434 µM
  TGI: 1.73 µM
SK-MEL-5 melanoma
  GI50: 1.58 µM
  TGI: 2.97 µM
MALME-3M melanoma
  GI50: 0.893 µM
  TGI: 2.41 µM
HT29 colon
  GI50: 0.769 µM
  TGI: 2.32 µM
NCI-H460 lung
  GI50: 1.85 µM
  TGI: 3.76 µM
SW-620 colon
  GI50: 1.32 µM
  TGI: 3.41 µM
SN12C renal
  GI50: 1.68 µM
  TGI: 4.08 µM
A549 NSCLC
  GI50: 1.69 µM
  TGI: 4.21 µM
BT-549 breast
  GI50: 2.4 µM
  TGI: 4.95 µM
SF-539 CNS
  GI50: 1.4 µM
  TGI: 2.78 µM
MDA-MB-231 breast
  GI50: 1.26 µM
  TGI: 3.25 µM
DU-145 prostate
  GI50: 2.22 µM
  TGI: 4.77 µM
OVCAR-3 ovarian
  GI50: 2 µM
  TGI: 4.2 µM
EKVX NSCLC
  GI50: 2.04 µM
  TGI: 4.39 µM
HL-60(TB) leukemia
  GI50: 0.342 µM
  TGI: 3.22 µM
SK-MEL-2 melanoma
  GI50: 1.15 µM
  TGI: 2.8 µM
LOX IMVI melanoma
  GI50: 0.743 µM
  TGI: 2.05 µM
SK-OV-3 ovarian
  GI50: 2.07 µM
  TGI: 3.85 µM
OVCAR-5 ovarian
  GI50: 1.39 µM
  TGI: 3.97 µM
HOP-62 NSCLC
  GI50: 1.59 µM
  TGI: 3.43 µM
MDA-MB-435
  GI50: 1.08 µM
  TGI: 2.39 µM
UACC-257 melanoma
  GI50: 1.53 µM
  TGI: 3.27 µM
OVCAR-4 ovarian
  GI50: 1.93 µM
  TGI: 5.86 µM
NCI-H226 lung
  GI50: 1.39 µM
  TGI: 5.32 µM
K-562 leukemia
  TGI: > 100 µM
SNB-75 CNS
  GI50: 0.372 µM
  TGI: 1.95 µM
CAKI-1 renal
  GI50: 1.89 µM
  TGI: 4.71 µM
NCI-H23 lung
  GI50: 1.17 µM
  TGI: 2.88 µM
UO-31 renal
  GI50: 1.34 µM
  TGI: 3.14 µM
HCT-116 colon
  GI50: 0.63 µM
  TGI: 2.32 µM
UACC-62 melanoma
  GI50: 1.43 µM
  TGI: 3.04 µM
OVCAR-8 ovarian
  GI50: 1.82 µM
  TGI: 4.35 µM
